What was measured:
[1] = tested on: AGE production; test: Inhibition of AGE production (glucose and bovine serum albumin, fluorescence), Example 5; assay type: biochemical; conditions: positive control substance 1 mM; 37° C., 4 weeks
Experimental: An experiment was performed according to the method of T. Kiho et al. (Biosci Biotechnol Biochem, 68: 200, 2004). To be more specific, a test substance was dissolved in 0.1 M phosphate buffer (pH 7.4) containing 500 mM glucose and 10 mg/mL bovine serum albumin at a concentration of 0.1% (w/v), and the resulting solution was incubated at 37° C. for 4 weeks. After 4 weeks, a value of fluorescence emitted by AGE was measured at an excitation light wavelength of 355 nm and a measurement wavelength of 460 nm, and the amount of produced AGE was determined, and then, an inhibition rate of AGE production was calculated according to the following calculation equation. Inhibition rate of AGE production(%)=[1−(Fluorescence value when test substance was added)/(Fluorescence value when test substance was not added)]×100 [Equation 1] (Experimental Results)
Incidentally, as the test substance, the following substances were used. Further, as a positive control substance, 1 mM aminoguanidine (a known AGE production inhibitor) was used.

[2] = tested on: HL-60 cells differentiated into neutrophil-like cells; test: ROS scavenging in phorbol ester-stimulated HL-60 cells (L-012 luminescence), Example 6; assay type: cell-based
Experimental: An experiment was performed according to the method of Olga T. et al. (Toxicological Science, 76: 376, 2003). To be more specific, HL-60 cells differentiated into neutrophil-like cells were suspended in a culture medium at 2×10^6 cells/mL, and the resulting cell suspension was added to a 96-well plate at 50 μL/well. Then, a test substance was added to the well at 50 μL/well (final concentration: 0.03%, 0.1%, and 0.3% (w/v)). Further, the culture medium was added to the well as a negative control at 50 μL/well. […] As a background, the plate to which the culture medium was added in place of the phorbol ester was incubated in the same manner. After completion of the incubation, a luminescence intensity (CPS) was measured using a multilabel counter, ARVOSX 1420 (manufactured by PerkinElmer) and an ROS scavenging rate was calculated according to the following calculation equation. […] Incidentally, as the test substance, the following substances were used. Further, as a positive control substance, 20 nM staurosporine (a known phorbol ester signal inhibitor) was used.

[3] = tested on: peritoneum (ultrafiltration capacity); test: Peritoneal equilibration test after repeated peritoneal dialysis fluid administration (water removal rate), Example 3; assay type: in vivo, Wistar male rat; conditions: 0.1% (w/v) in Midpeliq 250, into the peritoneal cavity once daily 15 mL/body for 7 days; vs control group; FIG. 1; CSC 10 kDa by method of Example 2
Experimental: To a Wistar male rat at 8 weeks of age, Midpeliq 250 (trade name, a peritoneal dialysis fluid containing glucose at a concentration of 2.5% (w/v) manufactured by Terumo Corporation) in which a test substance was dissolved at a concentration of 0.1% (w/v) was repetitively administered into the peritoneal cavity once daily at 15 mL/body for 7 days under ether anesthesia. To a control group (Control), Midpeliq 250 was administered in the same manner. On the next day after the final administration, a peritoneal equilibration test was performed, and the peritoneal function was evaluated. To be more specific, Midpeliq 250 was injected into the peritoneal cavity at 60 mL/kg, and 4 hours thereafter, the fluid remaining in the peritoneal cavity was recovered. The amount of the recovered fluid was measured, and the ultrafiltration capacity (water removal rate) of the peritoneum was evaluated.

[4] = Table 4, test substance 0.1% (w/v), CSC 10 kDa by method of Example 1

N=C(N)NN [Aminoguanidine, aminoguanidine]
Inhibition rate of AGE production [1]: 52.7%

CN[C@@H]1C[C@H]2O[C@@](C)([C@@H]1OC)n1c3ccccc3c3c4c(c5c6ccccc6n2c5c31)C(=O)NC4 [Staurosporine, staurosporine, reference compound]
ROS scavenging rate ([2]; Table 4, positive control substance 20 nM): 97.4%
ROS scavenging rate ([2]; Table 5, positive control substance 20 nM): 98.1%

Chondroitin sulfate A, sodium salt (whale cartilage), SG [CSA 30 kDa]
ROS scavenging rate [2, 4]: 33.4%

Chondroitin sulfate C, sodium salt (shark cartilage), SG [CSC 30 kDa]
effect of protecting the peritoneum (action of inhibiting a decrease in water removal rate) [3]: statistically significant effect was not observed
ROS scavenging rate [2, 4]: 5.0%

Chondroitin sulfate E, sodium salt (squid cartilage) [CSE 75 kDa]
ROS scavenging rate [2, 4]: 21.9%

Chondroitin, sodium salt [Ch 5 kDa]
ROS scavenging rate [2, 4]: 13.6%

Source: patent US9149572B2, “Chondroitin sulfate having decreased molecular weight and use thereof” (Seikagaku Corporation, priority 2007, dated 2015)
